# Reference: patent publication US4190647A, “Polypeptides and methods” (Sloan-Kettering Institute for Cancer Research, priority 1979, dated 1980)
# Where a SMILES comes first, the peptide text is derived from it.
# Legend:
# [1] = activity of terminally substituted pentapeptides in Twomey solution compared with the basic pentapeptide of Example I; format: cell-based
# chicken bone marrow = test: induction of Th-1 (T-cell) antigen on chicken bone marrow, cytotoxicity assay; format: cell-based; conditions: peptide at 1 μg/mil (method text: 0.1 μg/ml); control incubations subtracted
# Method: To determine the pharmacological activity and characteristics of these pentapeptides, use was made of the induction of Th-1 (T-cell) antigen on chicken bone marrow for use as an assay of the peptides at a concentration of 1 μg/mil. This method is described in Science, Brand et al, Vol. 193, pp. 319-321, July, 1976. In this method, pooled cells from femur and tibiotarsus of newly hatched chicks of strain SC (Hy-Line) are fractionated by ultracentrifugation on a five-layer discontinuous bovine serum albumin (BSA) gradient (11). Cells from each interface are washed and suspended for incubation at a concentration of 5×10^6 cells per milliliter with the peptide (0.1 μg/ml) in RPMI 1630 medium supplemented with 15 mM Hepes, 5 percent y-globulin-free fetal calf serum, deoxyribonuclease (14 to 18 unit/ml), heparin (5 unit/ml), penicillin (100 unit/ml), and streptomycin (100 μg/ml). Controls are incubated with BSA (1 μg/ml) or medium alone. After incubation, the cells are tested in the cytotoxicity assay using chicken and guinea pig complement fractions. The proportion of Bu-1^+ or Th-1^+ cells in each layer are calculated as a cytotoxicity index, 100 (a-b)/a, where a and b are the percentages of viable cells in the complement control and test preparation, respectively. The percentage of cells induced is obtained by subtracting the mean values in the control incubations without inducing agents (usually 1 to 3 percent) from those of the test inductions.
# [2] = tested on: precursors present in bone marrow or spleen; conditions: precursors from bone marrow or spleen; cited from earlier work
Molecule,% Induction of Th-1 (T-cell) antigen on chicken bone marrow (chicken bone marrow) [%],other results
"CC[C@H](C)[C@H](NC(=O)[C@H](CC(N)=O)NC(=O)[C@H](Cc1ccc(O)cc1)NC(C)=O)C(=O)N[C@@H](CCC(N)=O)C(=O)N[C@@H](CCCCN)C(=O)O [Example III, CH3 CONH-TYR-ASN-ILE-GLN-LYS-COOH] (Ac-YNIQK-OH)",,activity relative to the basic pentapeptide of Example I ([1]; 1 μg/ml in 14% Twomey solution): maximum and minimum activities comparable to the basic pentapeptide of Example I
"CC[C@H](C)[C@H](NC(=O)[C@H](CC(N)=O)NC(=O)[C@@H](N)Cc1ccc(O)cc1)C(=O)N[C@@H](CCC(N)=O)C(=O)N[C@@H](CCCCN)C(N)=O [Example IV, H2 N-TYR-ASN-ILE-GLN-LYS-CONH2] (H-YNIQK-NH2)",,activity relative to the basic pentapeptide of Example I ([1]; 1 μg/ml in 6% Twomey solution): activity comparable to the basic pentapeptide of Example I
"CC[C@H](C)[C@H](NC(=O)[C@H](CC(N)=O)NC(=O)[C@H](C)N)C(=O)N[C@@H](CCC(N)=O)C(=O)N[C@@H](CCCCN)C(=O)O [Example XXII, H2 N-ALA-ASN-ILE-GLN-LYS-COOH] (H-ANIQK-OH)",12,
"CC[C@H](C)[C@H](NC(=O)[C@H](C)NC(=O)[C@@H](N)Cc1ccc(O)cc1)C(=O)N[C@@H](CCC(N)=O)C(=O)N[C@@H](CCCCN)C(=O)O [Example XXIII, H2 N-TYR-ALA-ILE-GLN-LYS-COOH] (H-YAIQK-OH)",15,
"C[C@H](NC(=O)[C@H](CC(N)=O)NC(=O)[C@@H](N)Cc1ccc(O)cc1)C(=O)N[C@@H](CCC(N)=O)C(=O)N[C@@H](CCCCN)C(=O)O [Example XXIV, H2 N-TYR-ASN-ALA-GLN-LYS-COOH] (H-YNAQK-OH)",21,
Ubiquitin,,concentration inducing in vitro differentiation of both T-cell and B-cell immunocytes [2]: nanogram concentrations
